Assays:
[1] = biological target: T1, Human δ-opioid (DOP) (Homo sapiens, UniProt P41143); test: Radioligand binding, human δ-opioid (DOP) membranes, FlashPlate, [3H]-Bremazocine; settings: compound at 10 μM; for A1 radioligand binding inhibition: human δ-opioid (DOP) membranes; for A1: inhibition of radioligand binding, human δ-opioid (DOP): [3H]-Bremazocine
T1 construct: purchased Perkin Elmer Biosignal
Outline: (§1)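 Cloned human receptor membranes were coated onto FlashPlate wells and incubated with radioligand and compound (added from a 0.5 mM DMSO daughter plate) for 1 hour at room temperature in the dark. Scintillation counting gave percent inhibition, with DMSO defining total and reference ligand defining non-specific binding.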

[2] = biological target: T2, Human κ-Opioid (KOP) (Homo sapiens, UniProt P41145); test: Radioligand binding, human κ-opioid (KOP) membranes, filtration, [3H]-Diprenorphine; settings: compound at 10 μM; for A2 radioligand binding inhibition: human κ-opioid (KOP) membranes; for A2: inhibition of radioligand binding, human κ-opioid (KOP): [3H]-Diprenorphine
T2 construct: purchased Perkin Elmer Biosignal
T2 sequence (P41145 whole entry): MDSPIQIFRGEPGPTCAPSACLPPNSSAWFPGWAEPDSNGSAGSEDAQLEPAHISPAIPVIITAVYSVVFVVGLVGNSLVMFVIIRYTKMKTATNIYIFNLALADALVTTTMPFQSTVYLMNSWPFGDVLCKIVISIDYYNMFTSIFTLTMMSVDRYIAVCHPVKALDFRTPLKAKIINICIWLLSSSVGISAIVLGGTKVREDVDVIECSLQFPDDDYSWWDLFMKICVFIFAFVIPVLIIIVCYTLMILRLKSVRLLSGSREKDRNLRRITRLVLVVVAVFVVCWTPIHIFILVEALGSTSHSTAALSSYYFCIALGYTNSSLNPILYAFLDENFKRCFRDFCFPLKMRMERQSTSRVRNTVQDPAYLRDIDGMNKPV
Outline: (§2)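 Membranes from cloned human receptors were incubated with compound and radioligand for 1 hour at room temperature. Bound ligand was collected on 0.3% PEI-soaked filters, washed with cold 50 mM Tris-HCl pH 7.4, and counted by scintillation. Percent inhibition was computed against DMSO totals and reference-ligand nonspecific wells.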

[3] = biological target: T3, Human Melanocortin (MC3) (Homo sapiens, UniProt P41968); test: Radioligand binding, human melanocortin MC3 membranes, FlashPlate, [125I]-NDP-αMSH; settings: compound at 10 μM; for A3 radioligand binding inhibition: human melanocortin MC3 membranes; for A3: inhibition of radioligand binding, human melanocortin (MC3): [125I]-NDP-αMSH
T3 construct: purchased Perkin Elmer Biosignal
T3 sequence (P41968 whole entry): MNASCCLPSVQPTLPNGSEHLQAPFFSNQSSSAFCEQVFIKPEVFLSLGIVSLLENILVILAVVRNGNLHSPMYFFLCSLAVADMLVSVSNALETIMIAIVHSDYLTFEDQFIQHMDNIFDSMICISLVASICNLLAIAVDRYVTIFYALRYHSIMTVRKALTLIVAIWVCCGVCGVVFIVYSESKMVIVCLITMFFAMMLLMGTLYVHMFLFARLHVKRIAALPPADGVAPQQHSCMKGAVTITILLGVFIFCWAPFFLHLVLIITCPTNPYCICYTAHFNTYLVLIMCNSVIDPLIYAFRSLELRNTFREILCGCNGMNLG
Outline: as §1

[4] = biological target: T4, Human Melanocortin (MC4) (Homo sapiens, UniProt P32245); test: Radioligand binding, human melanocortin MC4 membranes, FlashPlate, [125I]-NDP-αMSH; settings: compound at 10 μM; for A4 radioligand binding inhibition: human melanocortin MC4 membranes; for A4: inhibition of radioligand binding, human melanocortin (MC4): [125I]-NDP-αMSH
T4 construct: purchased Perkin Elmer Biosignal
T4 sequence (P32245 whole entry): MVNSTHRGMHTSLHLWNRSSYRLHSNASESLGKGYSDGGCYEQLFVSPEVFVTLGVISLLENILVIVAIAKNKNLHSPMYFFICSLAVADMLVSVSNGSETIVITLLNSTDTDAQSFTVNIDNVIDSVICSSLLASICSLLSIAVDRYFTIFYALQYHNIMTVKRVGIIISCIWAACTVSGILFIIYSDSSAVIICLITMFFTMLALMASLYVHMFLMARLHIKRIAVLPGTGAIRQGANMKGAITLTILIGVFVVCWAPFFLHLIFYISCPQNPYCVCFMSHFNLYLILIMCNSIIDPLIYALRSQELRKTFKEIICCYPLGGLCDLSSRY
Outline: as §1

[5] = biological target: T5, Human melanocortin (MC5) (Homo sapiens, UniProt P33032); test: Radioligand binding, human melanocortin MC5 membranes, FlashPlate, [125I]-NDP-αMSH; settings: compound at 10 μM; for A5 radioligand binding inhibition: human melanocortin MC5 membranes; for A5: inhibition of radioligand binding, human melanocortin (MC5): [125I]-NDP-αMSH
T5 construct: purchased Perkin Elmer Biosignal
T5 sequence (P33032 whole entry): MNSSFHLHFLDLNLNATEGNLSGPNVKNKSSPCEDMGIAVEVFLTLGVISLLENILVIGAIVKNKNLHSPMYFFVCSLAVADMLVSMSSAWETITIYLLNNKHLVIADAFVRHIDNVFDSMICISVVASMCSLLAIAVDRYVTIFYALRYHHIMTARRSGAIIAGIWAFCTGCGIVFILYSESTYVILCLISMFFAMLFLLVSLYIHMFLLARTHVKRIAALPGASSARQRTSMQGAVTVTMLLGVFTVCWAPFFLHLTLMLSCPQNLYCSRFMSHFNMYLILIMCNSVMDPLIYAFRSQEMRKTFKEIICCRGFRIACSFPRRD
Outline: as §1

[6] = biological target: T6, Human melanin-concentrating hormone (MCH1) (Homo sapiens, UniProt Q99705); test: Radioligand binding, human melanin-concentrating hormone MCH1 membranes, FlashPlate, [125I]-S36057; settings: compound at 10 μM; for A6 radioligand binding inhibition: human MCH1 membranes; for A6: inhibition of radioligand binding, human melanin-concentrating hormone (MCH1): [125I]-S36057
T6 construct: purchased Perkin Elmer Biosignal
T6 sequence (Q99705 whole entry): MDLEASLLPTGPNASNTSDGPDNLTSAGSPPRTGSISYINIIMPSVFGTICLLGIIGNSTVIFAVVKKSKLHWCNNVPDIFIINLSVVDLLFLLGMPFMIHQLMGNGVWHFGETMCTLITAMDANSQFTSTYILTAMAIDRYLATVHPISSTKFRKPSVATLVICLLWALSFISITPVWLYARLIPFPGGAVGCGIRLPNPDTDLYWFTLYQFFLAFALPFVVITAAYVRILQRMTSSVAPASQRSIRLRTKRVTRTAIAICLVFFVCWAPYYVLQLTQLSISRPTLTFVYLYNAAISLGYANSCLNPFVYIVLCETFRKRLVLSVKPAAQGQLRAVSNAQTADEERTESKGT
Outline: as §1

[7] = biological target: T7, Human μ-opioid (MOP) (Homo sapiens, UniProt P35372); test: Radioligand binding, human μ-opioid (MOP) membranes, FlashPlate, [3H]-Naloxone; settings: compound at 10 μM; for A7 radioligand binding inhibition: human μ-opioid (MOP) membranes; for A7: inhibition of radioligand binding, human μ-opioid (MOP): [3H]-Naloxone
T7 construct: purchased Perkin Elmer Biosignal
T7 sequence (P35372 whole entry): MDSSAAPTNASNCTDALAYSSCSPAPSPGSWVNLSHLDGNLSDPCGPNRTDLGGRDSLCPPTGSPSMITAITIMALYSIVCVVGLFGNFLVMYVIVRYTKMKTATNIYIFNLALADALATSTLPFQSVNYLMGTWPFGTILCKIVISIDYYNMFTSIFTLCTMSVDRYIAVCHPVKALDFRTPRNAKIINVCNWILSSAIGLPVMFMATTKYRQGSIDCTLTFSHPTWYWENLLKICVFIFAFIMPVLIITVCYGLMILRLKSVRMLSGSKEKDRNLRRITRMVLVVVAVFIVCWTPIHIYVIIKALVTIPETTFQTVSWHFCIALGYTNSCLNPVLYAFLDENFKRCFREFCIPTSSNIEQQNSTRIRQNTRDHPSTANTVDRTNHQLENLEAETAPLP
Outline: as §1

[8] = biological target: T8, Human neurokinin (NK1) (Homo sapiens, UniProt P25103); test: Radioligand binding, human neurokinin NK1 membranes, filtration, [125I]-Substance P; settings: compound at 10 μM; for A8 radioligand binding inhibition: human neurokinin NK1 membranes; for A8: inhibition of radioligand binding, human neurokinin (NK1): [125I]-Substance P
T8 construct: purchased Perkin Elmer Biosignal
T8 sequence (P25103 whole entry): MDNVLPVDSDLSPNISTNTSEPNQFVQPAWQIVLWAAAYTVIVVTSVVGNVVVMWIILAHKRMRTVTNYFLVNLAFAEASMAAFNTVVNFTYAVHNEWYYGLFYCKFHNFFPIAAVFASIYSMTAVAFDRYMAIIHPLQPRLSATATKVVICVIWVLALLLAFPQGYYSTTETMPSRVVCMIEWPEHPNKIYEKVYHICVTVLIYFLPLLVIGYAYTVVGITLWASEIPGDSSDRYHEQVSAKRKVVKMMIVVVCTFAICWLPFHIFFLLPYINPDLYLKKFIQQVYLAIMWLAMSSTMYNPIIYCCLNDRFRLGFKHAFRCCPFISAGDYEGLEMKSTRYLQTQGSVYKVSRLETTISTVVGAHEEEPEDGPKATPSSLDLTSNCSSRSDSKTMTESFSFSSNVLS
Outline: as §2

[9] = biological target: T9, Human neuropeptide Y (NPY-Y1) (Homo sapiens, UniProt P25929); test: Radioligand binding, human neuropeptide Y NPY-Y1 membranes, FlashPlate, [125I]-PYY; settings: compound at 10 μM; for A9 radioligand binding inhibition: human NPY-Y1 membranes; for A9: inhibition of radioligand binding, human neuropeptide Y (NPY-Y1): [125I]-PYY
T9 construct: purchased Perkin Elmer Biosignal
T9 sequence (P25929 1-384): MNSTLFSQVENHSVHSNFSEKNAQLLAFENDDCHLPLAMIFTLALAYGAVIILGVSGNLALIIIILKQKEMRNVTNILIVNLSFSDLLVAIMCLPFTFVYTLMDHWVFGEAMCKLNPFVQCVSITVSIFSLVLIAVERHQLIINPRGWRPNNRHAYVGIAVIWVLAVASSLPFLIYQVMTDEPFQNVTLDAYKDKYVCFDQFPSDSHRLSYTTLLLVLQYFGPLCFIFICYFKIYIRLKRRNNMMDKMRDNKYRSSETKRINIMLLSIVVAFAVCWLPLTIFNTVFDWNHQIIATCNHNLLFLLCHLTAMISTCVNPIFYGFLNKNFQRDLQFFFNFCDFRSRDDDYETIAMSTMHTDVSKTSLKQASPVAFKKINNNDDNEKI
Outline: as §1

[10] = biological target: T10, Human opioid (ORL1) (Homo sapiens, UniProt P41146); test: Radioligand binding, human opioid ORL1 membranes, FlashPlate, [125I]-Nociceptin; settings: compound at 10 μM; for A10 radioligand binding inhibition: human ORL1 membranes; for A10: inhibition of radioligand binding, human opioid (ORL1): [125I]-Nociceptin
T10 construct: purchased Perkin Elmer Biosignal
T10 sequence (P41146 whole entry): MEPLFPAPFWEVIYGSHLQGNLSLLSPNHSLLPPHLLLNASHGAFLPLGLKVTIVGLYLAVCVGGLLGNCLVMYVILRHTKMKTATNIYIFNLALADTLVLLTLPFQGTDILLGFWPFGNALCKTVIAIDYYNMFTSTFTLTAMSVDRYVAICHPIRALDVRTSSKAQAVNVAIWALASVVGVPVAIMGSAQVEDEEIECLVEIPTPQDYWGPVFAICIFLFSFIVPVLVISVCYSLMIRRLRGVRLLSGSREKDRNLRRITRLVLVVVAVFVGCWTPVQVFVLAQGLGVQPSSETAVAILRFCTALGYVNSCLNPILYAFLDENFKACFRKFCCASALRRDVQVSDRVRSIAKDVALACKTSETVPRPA
Outline: as §1

[11] = biological target: T11, Mouse urotensin (mUR2) (Mus musculus, UniProt Q8VIH9); test: Radioligand binding, mouse urotensin mUR2 membranes, FlashPlate, [125I]-Urotensin II; settings: compound at 10 μM; for A11 radioligand binding inhibition: mouse urotensin mUR2 membranes; for A11: inhibition of radioligand binding, mouse urotensin (mUR2): [125I]-Urotensin II
T11 construct: purchased Perkin Elmer Biosignal
T11 sequence (Q8VIH9 1-385): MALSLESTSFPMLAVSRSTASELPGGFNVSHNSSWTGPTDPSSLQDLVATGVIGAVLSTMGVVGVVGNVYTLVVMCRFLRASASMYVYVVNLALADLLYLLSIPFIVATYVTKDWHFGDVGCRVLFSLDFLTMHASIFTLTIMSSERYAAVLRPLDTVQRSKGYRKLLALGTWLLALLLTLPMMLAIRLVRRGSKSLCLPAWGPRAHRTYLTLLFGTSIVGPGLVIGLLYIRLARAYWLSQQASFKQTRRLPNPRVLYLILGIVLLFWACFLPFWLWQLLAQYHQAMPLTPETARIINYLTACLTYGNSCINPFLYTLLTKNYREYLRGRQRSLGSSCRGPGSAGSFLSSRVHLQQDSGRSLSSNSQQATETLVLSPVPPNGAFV
Outline: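 Cloned mouse urotensin (mUR2) receptor membranes from Perkin Elmer Biosignal were immobilized in FlashPlate microplates using a proprietary coating. Each well got 19.5 μl buffer, then 0.5 μl of DMSO, reference ligand, or compound. Adding 5 μl of [125I]-Urotensin II, diluted to 5× final concentration in binding buffer, started binding. Plates were sealed with TopSeal-A and incubated 1 hour at room temperature in the dark. Wells were counted for 30 seconds each on a TopCount after a 60-second delay, and percentage inhibition was calculated.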

T1 sequence (P41143 whole entry): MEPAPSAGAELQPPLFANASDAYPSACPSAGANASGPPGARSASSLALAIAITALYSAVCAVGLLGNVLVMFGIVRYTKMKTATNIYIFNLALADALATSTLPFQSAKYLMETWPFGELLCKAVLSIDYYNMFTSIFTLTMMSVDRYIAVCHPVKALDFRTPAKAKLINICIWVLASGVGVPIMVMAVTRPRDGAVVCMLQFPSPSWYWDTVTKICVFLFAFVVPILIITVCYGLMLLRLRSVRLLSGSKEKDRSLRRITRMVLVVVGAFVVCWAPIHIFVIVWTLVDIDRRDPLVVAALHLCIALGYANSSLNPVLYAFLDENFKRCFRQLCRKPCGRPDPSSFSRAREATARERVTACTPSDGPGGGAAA

Row | Compound | A1 radioligand binding inhibition [1] | A2 radioligand binding inhibition [2] | A3 radioligand binding inhibition [3] | A4 radioligand binding inhibition [4] | A5 radioligand binding inhibition [5] | A6 radioligand binding inhibition [6] | A7 radioligand binding inhibition [7] | A8 radioligand binding inhibition [8] | A9 radioligand binding inhibition [9] | A10 radioligand binding inhibition [10] | A11 radioligand binding inhibition [11] | A1: inhibition of radioligand binding, human δ-opioid (DOP) [1] | A2: inhibition of radioligand binding, human κ-opioid (KOP) [2] | A3: inhibition of radioligand binding, human melanocortin (MC3) [3] | A4: inhibition of radioligand binding, human melanocortin (MC4) [4] | A7: inhibition of radioligand binding, human μ-opioid (MOP) [7] | A8: inhibition of radioligand binding, human neurokinin (NK1) [8] | A9: inhibition of radioligand binding, human neuropeptide Y (NPY-Y1) [9] | A10: inhibition of radioligand binding, human opioid (ORL1) [10] | A11: inhibition of radioligand binding, mouse urotensin (mUR2) [11] | also measured
1 | COC[C@H]1OC(OCc2ccccc2)[C@H](NC(=O)CCCN)[C@@H](OCc2ccc3ccccc3c2)[C@@H]1O (stereo partly drawn) [compound 26] | − (“−” indicates less than 50% inhibition at 10 μM) | − (“−” indicates less than 50% inhibition at 10 μM) | − (“−” indicates less than 50% inhibition at 10 μM) | − (“−” indicates less than 50% inhibition at 10 μM) | − (“−” indicates less than 50% inhibition at 10 μM) | − (“−” indicates less than 50% inhibition at 10 μM) | − (“−” indicates less than 50% inhibition at 10 μM) | + (“+” indicates greater than 50% inhibition at 10 μM) | − (“−” indicates less than 50% inhibition at 10 μM) | − (“−” indicates less than 50% inhibition at 10 μM) | − (“−” indicates less than 50% inhibition at 10 μM) |  |  |  |  |  |  |  |  |  | 
2 | CSC1O[C@H](COCc2ccccc2)[C@@H](O)[C@@H](OCc2ccc(-c3ccccc3)cc2)[C@H]1NC(=O)CCNC(=N)N (stereo partly drawn) [compound 286] |  |  |  |  |  |  |  |  |  |  |  | − (“−” indicates less than 50% inhibition at 10 μM) | − (“−” indicates less than 50% inhibition at 10 μM) | − (“−” indicates less than 50% inhibition at 10 μM) | − (“−” indicates less than 50% inhibition at 10 μM) | − (“−” indicates less than 50% inhibition at 10 μM) | + (“+” indicates greater than 50% inhibition at 10 μM) | − (“−” indicates less than 50% inhibition at 10 μM) | − (“−” indicates less than 50% inhibition at 10 μM) | − (“−” indicates less than 50% inhibition at 10 μM) | A5: inhibition of radioligand binding, human melanocortin (MC5) [5]: + (“+” indicates greater than 50% inhibition at 10 μM); A6: inhibition of radioligand binding, human melanin-concentrating hormone (MCH1) [6]: − (“−” indicates less than 50% inhibition at 10 μM)
3 | N=C(N)NCCCC(=O)NC1COC(COCc2ccc(Cl)cc2)C(O)C1OCc1ccc(Cl)cc1 (stereo not drawn) [compound 542] |  |  |  |  |  |  |  |  |  |  |  | − (“−” indicates less than 50% inhibition at 10 μM) | − (“−” indicates less than 50% inhibition at 10 μM) | − (“−” indicates less than 50% inhibition at 10 μM) | − (“−” indicates less than 50% inhibition at 10 μM) | − (“−” indicates less than 50% inhibition at 10 μM) | + (“+” indicates greater than 50% inhibition at 10 μM) | − (“−” indicates less than 50% inhibition at 10 μM) | − (“−” indicates less than 50% inhibition at 10 μM) | − (“−” indicates less than 50% inhibition at 10 μM) | A5: inhibition of radioligand binding, human melanocortin (MC5) [5]: − (“−” indicates less than 50% inhibition at 10 μM); A6: inhibition of radioligand binding, human melanin-concentrating hormone (MCH1) [6]: − (“−” indicates less than 50% inhibition at 10 μM)
4 | COC[C@H]1OC(OCc2ccc3ccccc3c2)[C@H](NC(=O)CNC(=N)N)[C@@H](OCc2ccc(-c3ccccc3)cc2)[C@@H]1O (stereo partly drawn) [compound 14] | − (“−” indicates less than 50% inhibition at 10 μM) | − (“−” indicates less than 50% inhibition at 10 μM) | − (“−” indicates less than 50% inhibition at 10 μM) | + (“+” indicates greater than 50% inhibition at 10 μM) | + (“+” indicates greater than 50% inhibition at 10 μM) | + (“+” indicates greater than 50% inhibition at 10 μM) | + (“+” indicates greater than 50% inhibition at 10 μM) | − (“−” indicates less than 50% inhibition at 10 μM) | − (“−” indicates less than 50% inhibition at 10 μM) | − (“−” indicates less than 50% inhibition at 10 μM) | − (“−” indicates less than 50% inhibition at 10 μM) |  |  |  |  |  |  |  |  |  | 
5 | CO[C@H]1[C@H](O)[C@@H](COCc2ccc3ccccc3c2)OC(OCc2ccc(-c3ccccc3)cc2)[C@@H]1NC(=O)CNC(=N)N (stereo partly drawn) [compound 55] | − (“−” indicates less than 50% inhibition at 10 μM) | + (“+” indicates greater than 50% inhibition at 10 μM) | + (“+” indicates greater than 50% inhibition at 10 μM) | + (“+” indicates greater than 50% inhibition at 10 μM) | + (“+” indicates greater than 50% inhibition at 10 μM) | + (“+” indicates greater than 50% inhibition at 10 μM) | + (“+” indicates greater than 50% inhibition at 10 μM) | + (“+” indicates greater than 50% inhibition at 10 μM) | − (“−” indicates less than 50% inhibition at 10 μM) | + (“+” indicates greater than 50% inhibition at 10 μM) | − (“−” indicates less than 50% inhibition at 10 μM) |  |  |  |  |  |  |  |  |  | 
6 | NCCCC(=O)NC1C(OCc2ccc(Cl)cc2)OC(COCc2ccccc2)C(O)C1OCc1ccc(Cl)cc1 (single isomer, unassigned) [compound 491] |  |  |  |  |  |  |  |  |  |  |  | − (“−” indicates less than 50% inhibition at 10 μM) | − (“−” indicates less than 50% inhibition at 10 μM) | − (“−” indicates less than 50% inhibition at 10 μM) |  | − (“−” indicates less than 50% inhibition at 10 μM) | + (“+” indicates greater than 50% inhibition at 10 μM) | − (“−” indicates less than 50% inhibition at 10 μM) | + (“+” indicates greater than 50% inhibition at 10 μM) | − (“−” indicates less than 50% inhibition at 10 μM) | A4: inhibition of radioligand binding, human melanocortin (MC4) ([4]; 10 µM): − (“−” indicates less than 50% inhibition at 10 μM); A5: inhibition of radioligand binding, human melanocortin (MC5) ([5]; 10 µM): − (“−” indicates less than 50% inhibition at 10 μM); A6: inhibition of radioligand binding, human melanin-concentrating hormone (MCH1) ([6]; 10 µM): − (“−” indicates less than 50% inhibition at 10 μM)
